Assay results published in US20230133958A1, “COMPOUNDS USEFUL IN MODULATING EGFR AND PI3K” (Mekanistic Therapeutics LLC, priority 2021, published 2023).

Experiments:
HER2 = HER2 (Homo sapiens, UniProt P04626); assay: Z'-LYTE / Adapta biochemical kinase assay, HER2
Source text: (§1) The Z′-LYTE® biochemical assay employs a fluorescence-based, coupled-enzyme format and is based on the differential sensitivity of phosphorylated and non-phosphorylated peptides to proteolytic cleavage. The peptide substrate is labeled with two fluorophores—one at each end—that make up a FRET pair. In the primary reaction, the kinase transfers the gamma-phosphate of ATP to a single tyrosine, serine or threonine residue in a synthetic FRET-peptide. In the secondary reaction, a site-specific protease recognizes and cleaves non-phosphorylated FRET-peptides. Phosphorylation of FRET-peptides suppresses cleavage by the Development Reagent. […] A ratiometric method, which calculates the ratio (the Emission Ratio) of donor emission to acceptor emission after excitation of the donor fluorophore at 400 nm, is used to quantitate reaction progress.
(§2) A significant benefit of this ratiometric method for quantitating reaction progress is the elimination of well-to-well variations in FRET-peptide concentration and signal intensities. […]
(§3) Both cleaved and uncleaved FRET-peptides contribute to the fluorescence signals and therefore to the Emission Ratio. The extent of phosphorylation of the FRET-peptide can be calculated from the Emission Ratio. […]

HER4 = HER4 (Homo sapiens, UniProt Q15303); assay: Z'-LYTE / Adapta biochemical kinase assay, HER4
Source text: as §1, §2, §3

P13Kδ = P13Kδ (Homo sapiens, UniProt O00329); assay: Z'-LYTE / Adapta biochemical kinase assay, PI3Kδ
Source text: as §1, §2, §3

HER4, sequence (Q15303 26-1308): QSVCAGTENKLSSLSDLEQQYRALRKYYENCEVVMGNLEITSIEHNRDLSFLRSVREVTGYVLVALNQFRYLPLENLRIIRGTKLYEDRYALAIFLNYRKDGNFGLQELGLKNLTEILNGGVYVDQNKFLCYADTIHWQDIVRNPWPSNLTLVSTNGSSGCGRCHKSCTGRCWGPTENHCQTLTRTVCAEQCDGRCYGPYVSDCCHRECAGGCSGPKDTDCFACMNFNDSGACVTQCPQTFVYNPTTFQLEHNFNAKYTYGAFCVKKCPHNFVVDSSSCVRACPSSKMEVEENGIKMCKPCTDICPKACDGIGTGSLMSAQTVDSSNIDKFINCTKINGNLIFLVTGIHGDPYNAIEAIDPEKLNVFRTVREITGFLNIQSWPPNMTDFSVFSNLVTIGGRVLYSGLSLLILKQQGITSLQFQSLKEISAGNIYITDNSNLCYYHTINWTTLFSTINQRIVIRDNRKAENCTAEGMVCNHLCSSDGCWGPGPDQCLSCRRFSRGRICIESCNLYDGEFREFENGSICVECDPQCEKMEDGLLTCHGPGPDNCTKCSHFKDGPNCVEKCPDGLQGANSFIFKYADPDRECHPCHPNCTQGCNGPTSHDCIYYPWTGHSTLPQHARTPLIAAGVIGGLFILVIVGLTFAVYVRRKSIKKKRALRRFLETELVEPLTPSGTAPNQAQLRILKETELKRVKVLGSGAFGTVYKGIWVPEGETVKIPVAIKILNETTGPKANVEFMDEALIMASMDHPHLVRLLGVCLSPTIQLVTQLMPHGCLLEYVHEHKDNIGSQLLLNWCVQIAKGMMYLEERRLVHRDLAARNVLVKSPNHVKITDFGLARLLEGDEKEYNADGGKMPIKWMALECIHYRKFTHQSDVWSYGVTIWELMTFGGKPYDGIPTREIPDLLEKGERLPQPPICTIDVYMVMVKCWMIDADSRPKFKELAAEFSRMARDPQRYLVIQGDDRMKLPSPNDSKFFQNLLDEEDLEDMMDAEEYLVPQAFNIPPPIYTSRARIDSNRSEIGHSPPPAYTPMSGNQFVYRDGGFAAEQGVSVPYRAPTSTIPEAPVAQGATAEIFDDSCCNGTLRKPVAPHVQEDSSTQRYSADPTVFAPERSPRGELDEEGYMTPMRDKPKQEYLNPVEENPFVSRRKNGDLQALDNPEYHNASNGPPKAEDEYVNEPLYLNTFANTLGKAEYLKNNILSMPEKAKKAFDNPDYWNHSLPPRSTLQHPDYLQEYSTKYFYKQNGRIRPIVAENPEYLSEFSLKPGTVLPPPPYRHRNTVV
P13Kδ, sequence (O00329 whole entry, stated change not applied): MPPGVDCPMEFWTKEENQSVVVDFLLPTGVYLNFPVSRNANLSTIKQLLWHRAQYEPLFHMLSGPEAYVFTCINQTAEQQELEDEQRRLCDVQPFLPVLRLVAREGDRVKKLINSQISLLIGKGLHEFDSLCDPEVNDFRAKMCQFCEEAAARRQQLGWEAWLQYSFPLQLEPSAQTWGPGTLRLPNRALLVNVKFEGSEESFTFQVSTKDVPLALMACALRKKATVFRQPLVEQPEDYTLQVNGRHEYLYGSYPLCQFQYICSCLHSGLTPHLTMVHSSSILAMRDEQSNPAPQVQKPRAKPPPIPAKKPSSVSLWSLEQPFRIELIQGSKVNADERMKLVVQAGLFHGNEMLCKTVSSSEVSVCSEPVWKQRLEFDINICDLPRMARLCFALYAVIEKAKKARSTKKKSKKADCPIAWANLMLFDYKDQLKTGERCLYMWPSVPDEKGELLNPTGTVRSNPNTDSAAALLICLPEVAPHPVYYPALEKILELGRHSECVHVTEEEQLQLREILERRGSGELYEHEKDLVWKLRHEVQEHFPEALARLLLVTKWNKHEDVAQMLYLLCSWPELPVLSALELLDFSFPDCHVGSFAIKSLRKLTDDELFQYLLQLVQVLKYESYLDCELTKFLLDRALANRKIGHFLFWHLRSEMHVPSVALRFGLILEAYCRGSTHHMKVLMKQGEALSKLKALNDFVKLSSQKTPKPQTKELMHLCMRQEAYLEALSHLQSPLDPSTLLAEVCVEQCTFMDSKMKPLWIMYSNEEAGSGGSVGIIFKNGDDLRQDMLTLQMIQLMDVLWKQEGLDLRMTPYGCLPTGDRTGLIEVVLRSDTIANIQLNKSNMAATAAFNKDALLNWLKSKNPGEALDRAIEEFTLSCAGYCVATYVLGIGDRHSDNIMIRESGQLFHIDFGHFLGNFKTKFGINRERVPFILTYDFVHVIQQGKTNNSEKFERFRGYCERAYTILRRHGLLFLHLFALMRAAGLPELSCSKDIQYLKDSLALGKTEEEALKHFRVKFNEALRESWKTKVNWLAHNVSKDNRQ
P13Kδ, sequence (P27986 2-724 partner limits assumed): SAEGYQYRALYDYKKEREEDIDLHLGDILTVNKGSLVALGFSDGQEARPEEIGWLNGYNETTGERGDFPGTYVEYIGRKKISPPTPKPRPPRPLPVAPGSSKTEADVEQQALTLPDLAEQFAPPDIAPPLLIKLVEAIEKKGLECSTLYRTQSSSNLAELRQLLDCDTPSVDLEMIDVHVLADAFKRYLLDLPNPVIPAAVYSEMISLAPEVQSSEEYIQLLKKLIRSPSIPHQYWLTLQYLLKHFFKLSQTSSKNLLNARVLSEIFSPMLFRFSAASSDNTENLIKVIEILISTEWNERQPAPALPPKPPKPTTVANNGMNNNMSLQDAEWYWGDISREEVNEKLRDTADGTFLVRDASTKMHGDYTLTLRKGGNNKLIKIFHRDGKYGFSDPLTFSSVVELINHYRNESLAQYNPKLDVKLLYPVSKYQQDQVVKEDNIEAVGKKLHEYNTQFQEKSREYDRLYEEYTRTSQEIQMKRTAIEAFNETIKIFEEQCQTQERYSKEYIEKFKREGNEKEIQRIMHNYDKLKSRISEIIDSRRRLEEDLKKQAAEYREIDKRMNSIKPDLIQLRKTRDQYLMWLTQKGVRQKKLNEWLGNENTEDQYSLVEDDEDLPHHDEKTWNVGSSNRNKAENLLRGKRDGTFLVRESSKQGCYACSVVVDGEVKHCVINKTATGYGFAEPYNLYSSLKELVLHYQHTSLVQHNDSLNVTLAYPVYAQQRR
HER2, sequence (P04626 23-1255): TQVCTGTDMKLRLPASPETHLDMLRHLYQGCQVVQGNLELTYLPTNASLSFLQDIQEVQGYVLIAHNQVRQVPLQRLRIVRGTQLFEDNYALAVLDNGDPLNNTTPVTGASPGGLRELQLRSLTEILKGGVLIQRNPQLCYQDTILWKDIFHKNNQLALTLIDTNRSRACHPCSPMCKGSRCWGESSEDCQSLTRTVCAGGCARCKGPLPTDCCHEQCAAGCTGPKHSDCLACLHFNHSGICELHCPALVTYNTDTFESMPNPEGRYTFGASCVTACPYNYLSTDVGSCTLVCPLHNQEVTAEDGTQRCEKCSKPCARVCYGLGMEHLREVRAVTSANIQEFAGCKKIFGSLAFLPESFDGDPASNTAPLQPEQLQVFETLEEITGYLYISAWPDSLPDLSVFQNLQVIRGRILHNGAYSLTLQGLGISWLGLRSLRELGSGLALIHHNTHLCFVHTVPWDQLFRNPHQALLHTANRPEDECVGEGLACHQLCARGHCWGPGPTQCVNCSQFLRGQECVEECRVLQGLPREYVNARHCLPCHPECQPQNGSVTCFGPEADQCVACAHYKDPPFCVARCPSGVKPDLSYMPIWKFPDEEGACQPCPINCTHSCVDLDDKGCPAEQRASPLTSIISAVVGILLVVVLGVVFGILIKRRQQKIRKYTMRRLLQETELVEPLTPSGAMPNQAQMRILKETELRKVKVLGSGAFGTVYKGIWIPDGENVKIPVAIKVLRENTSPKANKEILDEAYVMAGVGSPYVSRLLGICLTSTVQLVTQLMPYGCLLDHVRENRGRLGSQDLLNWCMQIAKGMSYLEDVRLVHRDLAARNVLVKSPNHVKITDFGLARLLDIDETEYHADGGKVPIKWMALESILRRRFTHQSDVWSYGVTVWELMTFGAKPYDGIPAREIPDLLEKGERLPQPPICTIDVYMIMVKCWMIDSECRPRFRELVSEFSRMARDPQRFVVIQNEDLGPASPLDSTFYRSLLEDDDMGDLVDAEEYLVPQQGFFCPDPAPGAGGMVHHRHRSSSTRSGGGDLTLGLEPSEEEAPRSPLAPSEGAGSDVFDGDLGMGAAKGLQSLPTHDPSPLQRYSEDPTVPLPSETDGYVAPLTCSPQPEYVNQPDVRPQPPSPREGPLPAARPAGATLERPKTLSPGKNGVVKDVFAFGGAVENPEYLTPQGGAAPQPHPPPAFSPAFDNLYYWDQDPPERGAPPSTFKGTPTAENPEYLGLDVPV

CS(=O)(=O)Nc1cc(-c2ccc3ncnc(Nc4cccc(Cl)c4F)c3c2)cnc1Cl [Compound 6, N-[2-chloro-5-[4-(3-chloro-2-fluoro-anilino)quinazolin-6-yl]-3-pyridyl] methanesulfonamide] gave an IC50 (HER2) greater than 200 nM, an IC50 (HER4) greater than 200 nM and an IC50 (P13Kδ) of no more than 2 nM.
